“Also recorded” adds a separate entry of the source.
What was measured:
[1] = Phase 1 study, SAD cohorts: plasma pharmacokinetics; type: in vivo, human; details: for AUC(0-inf) / Cmax / Tmax / half-life: both sexes, human, oral, plasma
Experimental: (§1) A double-blind, placebo-controlled, single- and multiple-ascending dose FIH Phase 1 study to evaluate the safety, tolerability, PK, and PD of Compound 21/3 in healthy adult subjects was performed. A total of up to 150 subjects were enrolled, including 100 subjects in Parts A and B, and up to 50 subjects in adaptive cohorts in Part C. Within each cohort, 10 subjects were randomized, including 8 subjects randomized to Compound 21/3 and 2 subjects to PTM (placebo-to-match). In single-dose cohorts in Parts A and in any Part C cohort evaluating a higher total daily dose than previously evaluated, safety and tolerability data collected through Day 2 from two sentinel subjects, one randomized to Compound 21/3 and one to PTM, were evaluated prior to dosing of the remaining subjects in each cohort.
(§2) Intensive PK sampling over 72 h postdose on Day 1 (SAD and MAD) and Day 14 (MAD) was performed. Compound 21/3 plasma concentrations were determined using validated liquid chromatography-tandem mass spectrometry assay. PK parameters were estimated via noncompartmental methods using Pheonix® WinNonlin® 6.2.1 and 8.3.4 (Certara, LP, Princeton, NJ).
Part A evaluated the safety, tolerability, PK, and PD of single-ascending doses of oral Compound 21/3 or placebo under fed conditions. Part A proceeded in up to 5 dose-escalation cohorts and governed by a review of safety, tolerability, and any available and relevant PK and/or PD data, and study-specific stopping criteria.

[2] = Phase 1 study, MAD cohorts: plasma pharmacokinetics; type: in vivo, human; details: healthy subjects; for AUC / Cmax / Tmax / half-life: both sexes, human, plasma, oral
Experimental: as §1, §2
Part B evaluated the safety, tolerability, PK, and PD of multiple-ascending doses of oral Compound 21/3 or placebo under fed conditions. Part B will proceed in up to 5 dose-escalation cohorts and will be governed by a review of safety, tolerability, and any available and relevant PK and/or PD data, and study-specific stopping criteria.

[3] = test system: ABCA1/ABCG1 in PBMCs; assay: Phase 1 study, MAD cohorts: expression of ABCA1/ABCG1 in PBMCs (peripheral RCT); type: in vivo, human; details: healthy subjects, predose and 4 h postdose on Day 14
Experimental: Lipid parameters, including apolipoprotein B (apoB), were evaluated by NMR LipoProfile® (Labcorp, Burlington, NC. Plasma ApoC3 and ANGPTL3 were evaluated by ELISA (360biolabs, Melbourne, Australia). Peripheral RCT (reverse cholesterol transport) were evaluated by assessing changes in expression of ABCA1/ABCG1 in PBMCs, predose and 4 hours postdose on Days 1 and 14 (Gnomix, Bedford Park, Australia).
In FIG. 14A to 14C, ApoC3 and ANGPTL3 measured 12 h postdose. RCT assessed predose and 4 h postdose on Day 14.

[4] = test system: HFD-fed SD rats; assay: HFD-fed Sprague-Dawley (SD) rat model; type: in vivo
Text: Data are shown as mean±SD. N=5-8 animals per group. *p≤0.05, **p≤0.01, ***p≤0.001, ****p≤0.0001 vs. vehicle, unless otherwise indicated; ^#p≤0.05 pioglitazone vs. vehicle Kruskal-Wallis (non-parametric One-Way ANOVA) test with Dunn's multiple comparisons test (FIG. 4A, FIG. 4B, FIG. 4D), repeated measures two-way ANOVA with Dunnett's multiple comparisons test (FIG. 4C), two-way ANOVA with Sidak's multiple comparisons test (FIG. 4E), Mann-Whitney test (FIG. 4F-G).
Data are shown as mean±SD. N=5-8 animals per group. *p≤0.05, **p≤0.01, ***p≤0.001, ****p≤0.0001 vs. vehicle, unless otherwise indicated; ^#p≤0.05 pioglitazone vs. vehicle repeated measures two-way ANOVA with Dunnett's multiple comparisons test (FIG. 5A, FIG. 5C, FIG. 5D), Kruskal-Wallis (non-parametric one-way ANOVA) test with Dunn's multiple comparisons test (FIG. 5B, FIG. 5E).
The efficacy of Compound 21/3 was evaluated in three dysmetabolic rodent models including DIO mice, HFD-fed ZDF rats, and HFD-fed SD rats (FIG. 4 and FIG. 5). Briefly, DIO mice were fed a HFD (60% kcal from fat) for 14 weeks and treated with Compound 21/3 (0.3 and 1 mg/kg once daily by oral gavage) for three weeks, while ZDF and SD rats were fed HFD for two weeks prior to treatment with Compound 21/3 (0.1 and 1 mg/kg once daily by oral gavage) for two or three weeks, respectively.

Work on N#Cc1cccc(C#N)c1-c1c(-c2cccc(-c3ccc(C(=O)NCC(=O)O)cc3Cl)c2)n(S(=O)(=O)c2ccc(C(F)F)cc2)c2ccc(F)cc12 [Compound 21/3] yielded an AUC(0-inf) ([1]; Day 1, 0.5 mg, mean) of 1.2 ng·h/mL, a Cmax ([1]; Day 1, 0.5 mg, mean, read-out: Cmax) of 0.37 ng/mL and a Tmax ([1]; Day 1, 0.5 mg, median) of 3.5 h. The half-life ([1]; Day 1, 0.5 mg, median) was 2.1 h, the AUC(0-inf) ([1]; Day 1, 2 mg, mean) was 8.5 ng·h/mL and the Cmax ([1]; Day 1, 2 mg, mean, read-out: Cmax) was 0.54 ng/mL. It also gave a Tmax ([1]; Day 1, 2 mg, median) of 3.75 h, a half-life ([1]; Day 1, 2 mg, median) of 4.96 h and an AUC(0-inf) ([1]; Day 1, 6 mg, mean) of 10 ng·h/mL. The Cmax ([1]; Day 1, 6 mg, mean, read-out: Cmax) was 3.33 ng/mL, the Tmax ([1]; Day 1, 6 mg, median) was 4 h and the half-life ([1]; Day 1, 6 mg, median) was 1.37 h. It also gave an AUC(0-inf) ([1]; Day 1, 12 mg, mean) of 17.1 ng·h/mL, a Cmax ([1]; Day 1, 12 mg, mean, read-out: Cmax) of 4.69 ng/mL and a Tmax ([1]; Day 1, 12 mg, median) of 3 h. For the same compound, the half-life ([1]; Day 1, 12 mg, median) was 2.02 h, the AUC(0-inf) ([1]; Day 1, 20 mg, mean) was 20.6 ng·h/mL and the Cmax ([1]; Day 1, 20 mg, mean, read-out: Cmax) was 6.79 ng/mL. It also gave a Tmax ([1]; Day 1, 20 mg, median) of 2.5 h, a half-life ([1]; Day 1, 20 mg, median) of 2.36 h and a half-life ([1]; healthy subjects) of 2 to 3 h. The Tmax ([1]; healthy subjects, postdose) was 3 to 4 h, the Cmax ([1]; healthy subjects, read-out: maximal plasma concentrations (Cmax)) was less than 7 ng/mL and the “dose proportionality of plasma exposure” value ([1]; healthy subjects) was “less than dose-proportional increases”. It also gave an AUC ([2]; 2 mg, MAD Day 14, 2 mg, fed, mean) of 2.7 ng·h/mL, a Cmax ([2]; 2 mg, MAD Day 14, 2 mg, fed, mean, read-out: Cmax) of 0.95 ng/mL and a Tmax ([2]; 2 mg, MAD Day 14, 2 mg, fed, median) of 4 h. For the same compound, the half-life ([2]; 2 mg, MAD Day 14, 2 mg, fed, median, read-out: t1/2 (converted)) was 1.43 h, the AUC ([2]; 6 mg, MAD Day 14, 6 mg (fasted), mean) was 19 ng·h/mL and the Cmax ([2]; 6 mg, MAD Day 14, 6 mg (fasted), mean, read-out: Cmax) was 6.37 ng/mL. It also gave a Tmax ([2]; 6 mg, MAD Day 14, 6 mg (fasted), median) of 2 h, a half-life ([2]; 6 mg, MAD Day 14, 6 mg (fasted), median, read-out: t1/2 (converted)) of 1.46 h and an AUC ([2]; 6 mg, MAD Day 14, 6 mg, fed, mean) of 6.05 ng·h/mL. The Cmax ([2]; 6 mg, MAD Day 14, 6 mg, fed, mean, read-out: Cmax) was 2.16 ng/mL, the Tmax ([2]; 6 mg, MAD Day 14, 6 mg, fed, median) was 3.5 h and the half-life ([2]; 6 mg, MAD Day 14, 6 mg, fed, median, read-out: t1/2 (converted)) was 1.51 h. It also gave an AUC ([2]; 12 mg, MAD Day 14, 12 mg, fed, mean) of 14.6 ng·h/mL, a Cmax ([2]; 12 mg, MAD Day 14, 12 mg, fed, mean, read-out: Cmax) of 4.85 ng/mL and a Tmax ([2]; 12 mg, MAD Day 14, 12 mg, fed, median) of 3.5 h. The half-life ([2]; 12 mg, MAD Day 14, 12 mg, fed, median, read-out: t1/2 (converted)) was 1.74 h, the half-life ([2]; MAD, read-out: steady-state t1/2) was 1.4 to 2.6 h and the Tmax ([2]; Phase 1 summary (SAD and MAD)) was 2 to 4 h. For the same compound, the Cmax ([2]; Phase 1 summary (SAD and MAD), read-out: maximal plasma concentrations (Cmax)) was less than 7 ng/mL, the “steady-state t1/2” value ([2]; MAD) was 1.5 to 2.5 h and the “AUC and Cmax lower on Day 14 vs Day 1” value ([2]; MAD, fed dosing) was 25-50%. For the same compound, the “dose proportionality of AUC and Cmax” value ([2]; MAD, fed dosing) was “increased less than dose proportionally”, the “peripheral RCT: expression of LXR target genes in PBMCs incl. ABCA1/ABCG1” value [3] was “does not impact; also recorded: did not impact” and the “liver expression of DNL genes (Srebp1c, Fasn, Acaca, Scd1)” value ([4]; 0.1 and 1 mg/kg once daily oral) was “dose-dependently reduced”. For the same compound, the “reduction of plasma TG compared with vehicle” value ([4]; highest dose 1 mg/kg, p≤0.05) was 59% and the “maximal reduction of liver TG versus vehicle” value ([4]; p=0.07) was 42%.

— US20260083704A1, “LXR MODULATORS WITH BICYCLIC CORE MOIETY FOR TREATING DYSLIPIDEMIAS” (OrsoBio, Inc., priority 2022, published 2026)
